Data set [1] relates to Rattus norvegicus. As to the kind of experiment: Animals with Ulcers in Carrageenan-induced paw edema test at a dose of 100 mg/kg perorally in rats. The data set is classed as functional. The note with it: route oral. (Carrageenan injected into the paw causes an acute inflammation.)
Data set [2] can be described thus: Percent Edema variation in Carrageenan-induced paw edema test at a dose of 50 mg/kg perorally in rats after 180 min (p<0.001). To be noted: route oral. The data set is classed as functional.
For data set [3], the system named is Rattus norvegicus. As to the kind of experiment: Reaction time in Hot plate test at a dose of 100 mg/kg perorally in rats after 180 min. It is filed as functional. To be noted: route oral.
Data set [4] in a line: Minimum concentration which causes 50% of the Artemia salina larvae to lose mobility. It is filed as ADME, organism-based. The note with it: in vivo.
The test system of data set [5] is Rattus norvegicus. As to the kind of experiment: Number of writhings in Acetic acid Writhing test at a dose of 100 mg/kg perorally in rats. It is filed as functional. To be noted: route oral. (In general: In writhing tests, fewer writhes than in controls are read as antinociception.)
The test system of data set [6] is Rattus norvegicus. As to the kind of experiment: Animals with Hyperemia in Carrageenan-induced paw edema test at a dose of 100 mg/kg perorally in rats. The data set is classed as functional. To be noted: route oral.
In data set [7] the test system is Rattus norvegicus. In words: Reaction time in Hot plate test at a dose of 100 mg/kg perorally in rats after 60 min (p<0.05). To be noted: route oral. The data set is classed as functional. Background: Hot-plate and tail-flick tests time the reaction to a heat stimulus.
The nature of data set [8]: Percent Edema variation in Carrageenan-induced paw edema test at a dose of 50 mg/kg perorally in rats after 120 min (p<0.01). It is filed as functional. To be noted: route oral.
The nature of data set [9]: (§1) Animals with Ulcers in Carrageenan-induced paw edema test at a dose of 50 mg/kg perorally in rats. It is filed as functional. To be noted: route oral.
For data set [10], the system named is Rattus norvegicus. As to the kind of experiment: Analgesic activity was determined using acetic acid writing test at a dose of 100 mg/kg perorally in rats.(p<0.05). It is filed as functional. To be noted: route oral.
The subject of data set [11] is Rattus norvegicus. As to the kind of experiment: Reaction time in Hot plate test at a dose of 100 mg/kg perorally in rats after 120 min. It is filed as functional. To be noted: route oral.
The nature of data set [12]: (§2) Percent Edema variation in Carrageenan-induced paw edema test at a dose of 50 mg/kg perorally in rats after 60 min. To be noted: route oral. The data set is classed as functional.
The subject of data set [13] is Rattus norvegicus. As to the kind of experiment: Percent Edema variation in Carrageenan-induced paw edema test at a dose of 100 mg/kg perorally in rats after 60 min. It is filed as functional. To be noted: route oral.
A short description of data set [14]: Peroral dose causing 50% death of the mice population. The data set is classed as ADME, organism-based. The note with it: mouse, in vivo, po.
Data set [15] concerns Rattus norvegicus. As to the kind of experiment: Percent Edema variation in Carrageenan-induced paw edema test at a dose of 100 mg/kg perorally in rats after 120 min (p<0.001). The data set is classed as functional. The note with it: route oral.
The nature of data set [16]: Animals with Hyperemia in Carrageenan-induced paw edema test at a dose of 50 mg/kg perorally in rats. To be noted: route oral. It is filed as functional.
The test system of data set [17] is Rattus norvegicus. In words: Percent Edema variation in Carrageenan-induced paw edema test at a dose of 100 mg/kg perorally in rats after 180 min (p<0.001). It is filed as functional. To be noted: route oral.
Data set [18] concerns Rattus norvegicus. As to the kind of experiment: Percent Edema variation in Carrageenan-induced paw edema test at a dose of 50 mg/kg perorally in rats after 120 min. The note with it: route oral. It is filed as functional.
The test system of data set [19] is Rattus norvegicus. In words: Percent Edema variation in Carrageenan-induced paw edema test at a dose of 50 mg/kg perorally in rats after 180 min (p<0.01). The data set is classed as functional. To be noted: route oral.
In data set [20] the test system is Rattus norvegicus. As to the kind of experiment: Reaction time in Hot plate test at a dose of 50 mg/kg perorally in rats after 60 min (p<0.01). It is filed as functional. The note with it: route oral.
Data set [21] has as its system Rattus norvegicus. In words: Reaction time in Hot plate test at a dose of 50 mg/kg perorally in rats after 180 min (p<0.01). The note with it: route oral. The data set is classed as functional.
In data set [22] the test system is Rattus norvegicus. As to the kind of experiment: Reaction time in Hot plate test at a dose of 50 mg/kg perorally in rats after 120 min (p<0.01). It is filed as functional. To be noted: route oral.
The subject of data set [23] is Rattus norvegicus. The description is as §1. It is filed as functional. To be noted: route oral.
Data set [24] relates to Rattus norvegicus. In words: Analgesic activity was determined using acetic acid writing test at a dose of 50 mg/kg perorally in rats. (p<0.01). It is filed as functional. To be noted: route oral.
Data set [25] has as its system Rattus norvegicus. Described as §2. To be noted: route oral. It is filed as functional.
Data set [26] has as its system Rattus norvegicus. In words: Number of writhings in Acetic acid Writhing test at a dose of 50 mg/kg perorally in rats. The data set is classed as functional. To be noted: route oral.

The structures appear in SMILES notation. Bounds are passed on as bounds.

The LC50 is the concentration lethal to half of the exposed cells or organisms. Higher therefore signals lower toxicity. The inhibition in vivo is the percentage by which the read-out fell short of the control. The term LD50 denotes the dose at which mortality reaches 50%. Low values mean a more toxic substance, high ones a less toxic substance.

Consider `COc1ccc([C@H]2SCC(=O)N2CCN2C(=O)CS[C@H]2c2ccc(OC)cc2)cc1`, for which the Animals turned out to be 0% in data set [1], 40% in data set [6], 0% in data set [9] and 20% in data set [16]. In addition, the Edema variation is on record as -66.97% in data set [2]; -49% in data set [8]; 14.08% in [12]; 20.23% in [13]; -75.9% in data set [15]; -96.42% in [17]. The Reaction time in data set [3] worked out at 15 s; in data set [7] it was 17 s; in data set [11], 15.6 s. Moreover, the LC50 in data set [4] was greater than 1000 µg/mL. For the same compound, in data set [5], the No. of writhings is on record as 11.3. Further, in data set [10], the inhibition in vivo at 100 mg/kg is 44%. The same compound returned an LD50 in data set [14] greater than 1000 mg/kg.

Consider `CCCCC1C(=O)N(c2ccccc2)N(c2ccccc2)C1=O` [PHENYLBUTAZONE], for which the Edema variation in data set [18] was -5.25%; in data set [19], -39.02%; in data set [25], -20.27%. The Reaction time in data set [20] came out at 28.3 s; in [21], 31.7 s; in data set [22] it was 30 s. Moreover, the Animals was 100% in data set [6] and 80% in [23]. The inhibition in vivo at 50 mg/kg in data set [24] worked out at 82%. This compound came in with an LD50 in data set [14] of 300 mg/kg. This compound registered a No. of writhings in data set [26] of 3.6.

The values are drawn from ChEMBL document CHEMBL1133821, “Synthesis and antiinflammatory, analgesic activity of 3,3'-(1,2-ethanediyl)-bis[2-aryl-4-thiazolidinone] chiral compounds. Part 10” (Bioorg Med Chem Lett, 2001).
